According to ChEMBL document CHEMBL1142732, “In-depth study of tripeptide-based alpha-ketoheterocycles as inhibitors of thrombin. Effective utilization of the S1' subsite and its implications to structure-based drug design” (J Med Chem, 2005):

What was measured:
[1] = molecular target: T1, Prothrombin (Homo sapiens, UniProt P00734); assay: Inhibitory concentration against human alpha thrombin
[2] = species on record: Homo sapiens; assay: Inhibitory concentration against gel filtered platelet aggregation induced by alpha thrombin; type: functional
[3] = molecular target: T1, Prothrombin; assay: Inhibition constant against human alpha thrombin
[4] = tested on: Cavia porcellus; assay: Percent change in blood pressure in guinea pig at 10 mg/kg dose
[5] = molecular target: T2, Serine protease 1 (Bos taurus, UniProt P00760); assay: Binding affinity against bovine trypsin
T2 sequence (P00760 whole entry): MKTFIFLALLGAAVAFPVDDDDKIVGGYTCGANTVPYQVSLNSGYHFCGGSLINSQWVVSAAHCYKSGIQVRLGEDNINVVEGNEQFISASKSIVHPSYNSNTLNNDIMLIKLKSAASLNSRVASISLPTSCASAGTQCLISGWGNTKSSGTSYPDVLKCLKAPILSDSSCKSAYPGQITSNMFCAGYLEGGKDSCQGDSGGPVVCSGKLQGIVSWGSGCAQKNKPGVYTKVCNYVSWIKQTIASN

[6] = molecular target: T1, Prothrombin; assay: Binding affinity determined against human alpha thrombin
[7] = molecular target: T1, Prothrombin; assay: Binding affinity against human alpha thrombin; SB = slow-binding kinetics
[8] = molecular target: T2, Serine protease 1; assay: Inhibitory concentration against bovine trypsin
[9] = molecular target: T2, Serine protease 1; assay: Inhibitory concentration against bovine trypsin; ND=Not determined
[10] = molecular target: T2, Serine protease 1; assay: Binding affinity against bovine trypsin; NA=Not active at 1 uM
[11] = tested on: Cavia porcellus; assay: Percent change in blood pressure in guinea pig at 3 mg/kg dose
[12] = molecular target: T1, Prothrombin; assay: Inhibitory concentration against human alpha thrombin; NA=Not active at 1 uM
[13] = tested on: Canis familiaris; assay: In vivo effective intravenous dose for that reduces thrombus weight accumulation on a silk fiber by 50% was determined in Dog arteriovenous shunt model; type: functional; settings: Canis lupus familiaris
[14] = tested on: Oryctolagus cuniculus; assay: In vivo effective intravenous dose for that was determined in Rabbit deep vein thrombosis model
[15] = species on record: Cavia porcellus; assay: animal or person; settings: Blood, iv
Description: In vivo effective intravenous dose for eliciting a 25% decrease in blood pressure in anesthetized Guinea pig

[16] = molecular target: T1, Prothrombin; assay: Binding affinity against human alpha thrombin; SB = Slow-binding
[17] = molecular target: T2, Serine protease 1; assay: Inhibitory concentration against bovine trypsin; Not determined
[18] = molecular target: T1, Prothrombin; assay: Binding affinity against human alpha thrombin; […]
[19] = tested on: Cavia porcellus; assay: Percent change in blood pressure in guinea pig at 20 mg/kg dose
[20] = molecular target: T1, Prothrombin; assay: Inhibitory concentration against human alpha thrombin; NA = Not active at 1 uM
[21] = tested on: Cavia porcellus; assay: Percent change in blood pressure in guinea pig at 1 mg/kg dose
[22] = tested on: Cavia porcellus; assay: Cardiovascular safety ratio ratiod (ED-25:ED50) estimation, which is based on a comparison of the hypotensive response in anesthetized guinea pigs to the anticoagulant / antithrombotic response in dogs; type: functional
[23] = tested on: Cavia porcellus; assay: Cardiovascular safety ratio ratiod (ED-25:ED50) estimation, which is based on a comparison of the hypotensive response in anesthetized guinea pigs to the anticoagulant / antithrombotic response in rabbit; type: functional
[24] = molecular target: T2, Serine protease 1; assay: Inhibitory concentration against bovine trypsin; NT=Not determined
[25] = Half life was determined in rat after an intravenous dose of 1 mg/kg; type: ADME, organism-based; design: dose 1 mg/kg, route intravenous; settings: in vivo
[26] = species on record: Homo sapiens; assay: Inhibitory concentration of the compound was determined against gel filtered platelet aggregation induced by alpha thrombin; type: functional
[27] = Oral bioavailability was determined in conscious rat after 10 mg/kg dosage through gavage; type: ADME, organism-based; settings: in vivo
[28] = Oral half life was determined in conscious rat after 10 mg/kg dosage through gavage; type: ADME, organism-based; design: dose 10 mg/kg; settings: in vivo
[29] = molecular target: T1, Prothrombin; assay: Inhibitory concentration against human alpha thrombin; NT=Not active at 300 uM
[30] = molecular target: T2, Serine protease 1; assay: Binding affinity against bovine trypsin; NT=Not active at 100 uM

CCS(=O)(=O)N[C@H](Cc1ccccc1)C(=O)N1CCC[C@H]1C(=O)NC(CCCN=C(N)N)C(=O)c1nc2ccccc2s1 (stereo partly drawn)
IC50 [1]: 500 nM | IC50 [2]: 46 nM | Ki [3]: 24 nM | Delta BP [4]: -36% | Ki [5]: 31 nM | Ki [6]: 24 nM

NC(N)=NCCCC(NC(=O)[C@@H]1CCCN1C(=O)[C@H](N)Cc1ccccc1)C(=O)c1nc2ccccc2s1 (stereo partly drawn)
Ki [7]: Slow Binding | Ki [5]: 0.3 nM

N=C(N)NCCCC(NC(=O)[C@@H]1CCCN1C(=O)N[C@H](C=O)Cc1ccccc1)C(=O)c1nc2ccccc2s1 (stereo partly drawn)
IC50 [1]: 17000 nM | IC50 [8]: 5.8 nM

CN[C@H](Cc1ccccc1)C(=O)N1CCC[C@H]1C(=O)N[C@H](CC(=O)c1nc2ccccc2s1)[C@H]1CC[C@H](N)CC1
IC50 [1]: > 100000 nM | IC50 [9]: 58000 nM

CCCC[C@H](NC(=O)[C@@H]1CCCN1C(=O)[C@@H](Cc1ccccc1)NC)C(=O)c1nc2ccccc2s1
Ki [10]: Not Active

N=C(N)NCCCC(NC(=O)[C@@H]1CCCN1C(=O)CC(c1ccccc1)c1ccccc1)C(=O)c1nc2ccccc2s1 (stereo partly drawn)
IC50 [1]: 11 nM | IC50 [2]: 29 nM | Ki [3]: 3.1 nM | Ki [5]: 22 nM | Delta BP [11]: -25% | Ki [6]: 1.1 nM

CNCCCC[C@@H](NC(=O)[C@@H]1CCCN1C(=O)[C@@H](Cc1ccccc1)NC)C(=O)c1nc2ccccc2s1
Ki [5]: 1000 nM | Ki [6]: 3500 nM | IC50 [12]: Not Active

CN[C@H](Cc1ccccc1)C(=O)N1CCC[C@H]1C(=O)N[C@@H](CCCN=C(N)N)C(=O)c1nc2ccccc2s1
IC50 [1]: 29 nM | IC50 [2]: 32 nM | ED50 [13]: 0.46 mg/kg | Ki [3]: 0.18 nM | Delta BP [11]: -85% | ED50 [14]: 0.25 mg/kg | ED25 [15]: 0.9 mg/kg

CN[C@H](Cc1ccccc1)C(=O)N1CCC[C@H]1C(=O)N[C@@](C)(CCCN=C(N)N)C(=O)c1nc2ccccc2s1
IC50 [1]: 3700 nM | Ki [5]: 6000 nM | Ki [16]: 430 nM

CN[C@H](Cc1ccccc1)C(=O)N1CCC[C@H]1C(=O)N[C@H](CCCN=C(N)N)Cc1nc2ccccc2s1
IC50 [17]: 30000 nM

CN[C@H](Cc1ccccc1)C(=O)N1CCC[C@H]1C(=O)N[C@@H](Cc1ccc(C(=N)N)cc1)C(=O)c1nc2ccccc2s1
IC50 [8]: 540 nM | Ki [6]: 1400 nM

CN[C@H](Cc1ccccc1)C(=O)N1CCC[C@H]1C(=O)N[C@@H](Cc1ccccc1)C(=O)c1nc2ccccc2s1
Ki [5]: 12000 nM | Ki [6]: 7100 nM | IC50 [12]: Not Active

CN[C@H](Cc1ccccc1)C(=O)N1CCC[C@H]1C(=O)NC(CCCN=C(N)N)C(=O)c1nc2ccc(C(N)=O)cc2s1 (stereo partly drawn)
Ki [5]: 0.3 nM | Ki [18]: Slow Binding

CN[C@H](Cc1ccccc1)C(=O)N1CCC[C@H]1C(=O)NC(CCCN=C(N)N)C(=O)c1nc2ccc(C(=O)OC)cc2s1 (stereo partly drawn)
IC50 [2]: 39 nM | ED50 [13]: 0.47 mg/kg | Delta BP [4]: -16% | Ki [5]: 31 nM | ED50 [14]: 0.35 mg/kg | ED25 [15]: 13.4 mg/kg

CN[C@H](Cc1ccccc1)C(=O)N1CCC[C@H]1C(=O)N[C@@H](C(=O)c1nc2ccccc2s1)C1CCC(CN)CC1 (stereo partly drawn)
Ki [5]: 4000 nM | Ki [6]: 1450 nM | IC50 [12]: Not Active

CN[C@@H](C(=O)N1CCC[C@H]1C(=O)NC(CCCN=C(N)N)C(=O)c1nc2ccccc2s1)C(c1ccccc1)c1ccccc1 (stereo partly drawn)
IC50 [1]: 4.5 nM | IC50 [2]: 43 nM | IC50 [8]: 352 nM | Delta BP [11]: -54% | Ki [18]: Slow Binding

N=C(N)NCCC[C@H](NC(=O)[C@@H]1CCCN1C(=O)[C@H](CO)NS(=O)(=O)c1cccc2ccccc12)C(=O)c1nc2ccccc2s1
IC50 [1]: 110 nM | IC50 [2]: 34 nM | Ki [3]: 10 nM | Ki [5]: 2.9 nM | Ki [6]: 0.78 nM | Delta BP [19]: -30%

CN[C@H](Cc1ccccc1)C(=O)N1CCC[C@H]1C(=O)N[C@@H](CC(=O)c1nc2ccccc2s1)[C@H]1CC[C@H](N)CC1
IC50 [1]: > 100000 nM | IC50 [9]: 22000 nM

CNCCCC[C@H](NC(=O)[C@@H]1CCCN1C(=O)[C@@H](Cc1ccccc1)NC)C(=O)c1nc2ccccc2s1
IC50 [20]: Not Active | IC50 [2]: 5200 nM | Ki [5]: 1200 nM | Delta BP [21]: -16% | Ki [6]: 3700 nM

CN[C@H](Cc1ccccc1)C(=O)N1CCC[C@H]1C(=O)N[C@@H](CCCCN=C(N)N)C(=O)c1nc2ccccc2s1
IC50 [1]: 8400 nM | IC50 [8]: 630 nM

CN[C@H](Cc1ccccc1)C(=O)N[C@H](C(=O)NC(CCCN=C(N)N)C(=O)c1nc2ccccc2s1)C(C)C (stereo partly drawn)
IC50 [1]: 440 nM | IC50 [2]: 180 nM | Ki [3]: 21 nM | Ki [5]: 1.5 nM | Delta BP [11]: -47% | Ki [6]: 21 nM

CN[C@H](Cc1ccccc1)C(=O)N1CCC[C@H]1C(=O)N[C@H](C=O)CCCNC(=N)N (stereo in doubt; 1b)
IC50 [1]: 85 nM | IC50 [2]: 83 nM | ED50 [13]: 0.66 mg/kg | Ki [3]: 18 nM | Delta BP [4]: -21% | Ki [5]: 9.1 nM | Ratio [22]: 43 | ED50 [14]: 0.21 mg/kg | Ratio [23]: 136 | Ki [6]: 18 nM | ED25 [15]: 28.6 mg/kg

CS(=O)(=O)CC[C@H](NS(=O)(=O)Cc1ccccc1)C(=O)N1CCC[C@H]1C(=O)N[C@@H](CCCNC(=N)N)C(=O)c1nc2ccccc2s1
IC50 [1]: 95 nM | IC50 [2]: 37 nM | Delta BP [4]: -64% | Ki [5]: 2.7 nM | Ki [6]: 1.5 nM

CN[C@H](Cc1ccccc1)C(=O)N1CCC[C@H]1C(=O)N[C@@H](CCCN=C(N)N)Cc1nc2ccccc2s1
IC50 [24]: 32000 nM

CN[C@H](Cc1ccccc1)C(=O)N1CCC[C@H]1C(=O)NC(CCCN=C(N)N)C(=O)c1nc2ccc(C(=O)O)cc2s1 (stereo partly drawn)
ED50 [13]: 0.14 mg/kg | half-life [25]: 25 min | Delta BP [4]: -32% | IC50 [26]: 41 nM | Ki [5]: 2.7 nM | bioavailability [27]: 3% | half-life [28]: 60 min | ED50 [14]: 0.43 mg/kg | ED25 [15]: 13 mg/kg

N=C(N)NCCCCC(=O)c1nc2ccccc2s1
IC50 [29]: Not Active | Ki [30]: Not Active
